Measured values from article PMC3140774 (Journal of Medicinal Chemistry, 2011).

Experiments:
[1] = system: bloodstream form T. brucei (strain 427); assay: Trypanocidal assay, growth inhibition of cultured bloodstream-form T. brucei; format: cell-based, Trypanosoma brucei; conditions: for times higher activity than C-methyl analogue 7c / times higher activity than the parent 7a: free base form
[2] = system: procyclic (insect form) T. brucei; assay: Activity against cultured procyclic; format: cell-based, Trypanosoma brucei
[3] = system: Bloodstream-form T. brucei; conditions: cited from earlier work
[4] = system: T. cruzi epimastigotes (CL Brener clone); assay: Growth inhibition of T. cruzi epimastigotes; format: cell-based, Trypanosoma cruzi; conditions: free base

In the case of CN1CC(=O)N(CC(=O)NO)C(=O)C12CCCCCCC2 [9b], the “fold more potent against T. brucei than 9a” value ([1]; free base, bloodstream form) is reported as 1.9 fold.

In the case of O=C(CN1C(=O)C(Cc2ccccc2)NC2(C1=O)C1CC3CC(C1)CC2C3)NO (stereo not shown) [compound 8], the “times more resistant: procyclic versus bloodstream-form T. brucei” value [2] is reported as 10–50 fold, the “times higher activity than C-methyl analogue 7c” value ([1]; bloodstream form) is reported as 8–20 fold and the “times higher activity than the parent 7a” value ([1]; bloodstream form) is reported as 5.3–13 fold.

In the case of O=C1ON=C2C3CC4CC(C3)CC12C4 [compound 3], the “potency fold greater than amantadine” value ([3]; T. brucei in vitro) is listed as “at least 45 fold”.

In the case of CC(N)C12CC3CC(CC(C3)C1)C2 (stereo not shown) [rimantadine], the IC50 ([3]; read-out: IC50 bloodstream-form T. brucei, in vitro) is listed as 7 µM.

With CN1CC(=O)N(CC(=O)NO)C(=O)C12CCCCCC2 [10b] the “times more potent against T. brucei than 10a” value ([1]; free base, bloodstream form) was 6.6 fold.

With O=C(CN1C(=O)CNC2(CCCCCCC2)C1=O)NO [9a] the “fold decrease in activity against T. brucei compared with 7a” value (“fold decrease in activity” below) ([1]; free base, bloodstream form) was 3.3 fold.

In the case of O=C(CN1C(=O)[C@H](Cc2ccccc2)NC2(C1=O)C1CC3CC(C1)CC2C3)NO (stereo partly shown) [7d], the “fold more potent against T. cruzi than 7a” value [4] is reported as 26 fold, the “times more resistant: procyclic versus bloodstream-form T. brucei” value [2] is reported as 10–50 fold and the “fold lower potency of hydrochloride versus free base” value ([1]; bloodstream-form T. brucei) is reported as 6.2 fold. For the same molecule, the “times higher activity than C-methyl analogue 7c” value ([1]; bloodstream form) was 8–20 fold, the “times higher activity than the parent 7a” value ([1]; bloodstream form) was 5.3–13 fold and the “factor less potent than 7e (R-enantiomer)” value ([1]; tested as hydrochloride salts) was 4.6 fold. For the same molecule, the “factor less potent than 8 (racemic mixture)” value ([1]; tested as hydrochloride salts) was 2.3 fold.

With C[C@@H]1NC2(C(=O)N(CC(=O)NO)C1=O)C1CC3CC(C1)CC2C3 (stereo partly shown) [7c] the “fold lower potency of hydrochloride versus free base” value ([1]; bloodstream-form T. brucei) was 3 fold and the “fold decrease in activity” value ([1]; free base, bloodstream form) was 1.5 fold.

For CN1CC(=O)N(CC(=O)NO)C(=O)C12C1CC3CC(C1)CC2C3 (stereo not shown) [7b], the “fold more potent against T. cruzi than 7a” value [4] was 1.5 fold, the “fold lower potency of hydrochloride versus free base” value ([1]; bloodstream-form T. brucei) was 1.8 fold and the “fold decrease in activity” value ([1]; free base, bloodstream form) was 2.1 fold.

In the case of O=C(CN1C(=O)CNC2(CCCCCC2)C1=O)NO [10a], the “fold decrease in activity” value ([1]; free base, bloodstream form) is reported as 21 fold.

In the case of O=C(CN1C(=O)[C@H](Cc2ccccc2)NC2(CCCCCCC2)C1=O)NO [9d], the “fold more potent against T. brucei than 9a” value ([1]; free base, bloodstream form) is reported as 10 fold and the “times more trypanocidal activity than C-methyl counterpart 9c” value ([1]; free base, bloodstream form) is reported as 4.3 fold.

In the case of O=C(CN1C(=O)[C@@H](Cc2ccccc2)NC2(C1=O)C1CC3CC(C1)CC2C3)NO (stereo partly shown) [7e], the “times more resistant: procyclic versus bloodstream-form T. brucei” value [2] is reported as 10–50 fold, the “times higher activity than C-methyl analogue 7c” value ([1]; bloodstream form) is reported as 8–20 fold and the “times higher activity than the parent 7a” value ([1]; bloodstream form) is reported as 5.3–13 fold.

For C[C@@H]1NC2(CCCCCCC2)C(=O)N(CC(=O)NO)C1=O [9c], the “fold more potent against T. brucei than 9a” value ([1]; free base, bloodstream form) was 2.4 fold.

With O=C1CNC2(C(=O)N1)C1CC3CC(C1)CC2C3 (stereo not shown) [6a] the “inhibition of parasite growth, preliminary screen” value ([1]; 5 μg mL^–1, bloodstream-form T. brucei) was “inactive”.
